Test system: 5-HT1B receptor
Experiment: PET measurements in monkeys (radioligand brain uptake and 5-HT1B receptor binding)
Assay type: in vivo, Cynomolgus monkey
Description: Cynomolgus monkey can be used to determine the suitability of [^11C] labeled raidoligands as a radioligand for PET-determination of 5HT^1B-receptor binding and occupancy. Anaesthesia can be induced and maintained by repeated intramuscular injections of a mixture of ketamine (3-4 mg/kg per h Ketalar, Parke-Davis) and xylazine hydrochloride (1-2 mg/kg per h Rompun® Vet., Bayer, Sweden) for the duration of each measurement. A fixation device can be used for the positioning of the monkey head during the PET-measurements. Body temperature can be controlled by Bair Hugger—Model 505 (Arizant Healthcare Inc, MN).
Radioactivity in the brain can be measured with the Siemens ECAT Exact HR47 system that can be used in the three-dimensional model. The system covers an axial distance of 15 cm. The transaxial resolution of the reconstructed images is about 3.8 mm full width at half-maximum (FWHM) and the axial resolution 4.0 mm FWHM. […]
In each PET-measurement a sterile physiological phosphate buffer (pH=7.4) solution containing about 1.4 mCi (50 MBq) of [^11C] labeled compound can be injected as a bolus into a sural vein during 2 s with simultaneous start of PET-data acquisition. Radioactivity in brain can be measured continuously for 93 minutes according to a pre-programmed series of 15 frames starting immediately after IV injection of [^11C] labeled compound. […]
During all PET measurements venous blood samples (about 0.5 ml) can be taken at 4 time points (at about 4, 15, 30 and 45 minutes) and plasma radioactivity concentration determined in a well counter, cross-calibrated with the camera. […]
The ROIs can be drawn on the PET summation images representing radioactivity measured from 9 minutes after intravenous injection to the end of the measurement. […] Radioactivity is calculated for the sequence of time frames, corrected for the radioactivity decay, and plotted versus time. For each region a time-activity curve can be generated and radioactivity expressed as nCi/ml. […]

[^11C] 8-(4-methylpiperazin-1-yl)-5-methylchrom-2-en-4-one-2-(4-morpholinophenyl)carboxamide) [Example 3]
specific binding to the areas of interest (primate brain PET, non specific defined as cerebellum): binds specifically to the areas of interest
specific to non-specific ratios (primate brain PET, ratio of ROI to cerebellum (non specific defined as cerebellum)): high enough specific to non-specific ratios
entry of radioligand into brain (primate brain, PET, IV bolus of [11C] labeled compound): rapidly entered the primate brain
